Test results taken from US6737383B1, “Herbicidal oxadiazolidines” (priority 1999, dated 2004).

Columns and labels:
surinam grass = assay: Test D surinam grass; assay type: in vivo, Brachiaria decumbens; conditions: Preemergence, 0 to 100 scale
From the text: (§1) Seeds, tubers, or plant parts of Alexandergrass (Brachiaria plantaginea), bermuda-grass (Cynodon dactylon), common pursiane (Portulaca oleracea), common ragweed (Ambrosia elatior), common groundsel (Senecio vulgaris), dallisgrass (Paspalum dilatatum), goosegrass (Eleusine indica), guineagrass (Panicum maximum), itchgrass (Rottboellia exaltata), Johnson grass (Sorghum halepense), large crabgrass (Digitaria sanguinalis), pitted morningglory (Ipomoea lacunosa), purple nutsedge (Cyperus rotundus), sandbur (Cenchrus echinatus), sourgrass (Trichachne insularis), Spanishneedles (Bidens bipinnata), surinam grass (Brachiaria decumbens) and tall mallow (Malva sylvestris) were planted into greenhouse pots of flats containing greenhouse planting medium. Plant species were grown in separate pots or individual compartments. Preemergence applications were made within one day of planting the seed or plant part.
(§2) Test chemicals were formulated in a non-phytotoxic solvent mixture which included a surfactant and applied preemergence to the surface of the pot containing seeds in a sandy loam soil. Untreated control pots and treated pots were placed in the greenhouse for growth and visually evaluated for injury 14 to 21 days after herbicide application. Plant response ratings, summarized in Table C, are based on a 0 to 100 scale where 0 is no injury and 100 is complete control. A dash (−) response means no test result.

Alexandergrass = assay: Test D Alexandergrass; assay type: in vivo, Brachiaria plantaginea; conditions: Preemergence, 0 to 100 scale
Procedure, shortened: (§3)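 Seeds were sown in greenhouse pots, one species per pot or compartment. Compounds were in a non-phytotoxic solvent mixture with surfactant; preemergence applications went on the sandy loam surface within one day of planting. Injury was rated visually after 14 to 21 days, 0 (none) to 100 (complete control).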

tall mallow = assay: Test D tall mallow; assay type: in vivo, Malva sylvestris; conditions: Preemergence, 0 to 100 scale
Procedure, shortened: as §3

itchgrass = assay: Test D itchgrass; assay type: in vivo, Rottboellia exaltata; conditions: Preemergence, 0 to 100 scale
Procedure, shortened: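 Scoring used a 0–100 visual injury scale, with 0 meaning no effect and 100 complete control, assessed 14–21 days after application alongside untreated pots. Preemergence treatments went onto sandy loam surfaces of separately potted seeds within a day of sowing.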

Johnson grass = assay: Test D Johnson grass; assay type: in vivo, Sorghum halepense; conditions: Preemergence, 0 to 100 scale
From the text: as §1, §2

goosegrass = assay: Test D goosegrass; assay type: in vivo, Eleusine indica; conditions: Preemergence, 0 to 100 scale
Procedure, shortened: as §3

dallisgrass = assay: Test D dallisgrass; assay type: in vivo, Paspalum dilatatum; conditions: Preemergence, 0 to 100 scale
Procedure, shortened: as §3

sandbur = assay: Test D sandbur; assay type: in vivo, Cenchrus echinatus; conditions: Preemergence, 0 to 100 scale
Procedure, shortened: as §3

pitted morningglory = assay: Test D pitted morningglory; assay type: in vivo, Ipomoea lacunosa; conditions: Preemergence, 0 to 100 scale
Procedure, shortened: as §3

bermuda-grass = assay: Test D bermudagrass; assay type: in vivo, Cynodon dactylon; conditions: Preemergence, 0 to 100 scale
From the text: as §1, §2

common ragweed = assay: Test D common ragweed; assay type: in vivo, Ambrosia elatior; conditions: Preemergence, 0 to 100 scale
Procedure, shortened: as §3

guineagrass = assay: Test D guineagrass; assay type: in vivo, Panicum maximum; conditions: Preemergence, 0 to 100 scale
From the text: as §1, §2

Green foxtail [1] = assay: Test D green foxtail; assay type: in vivo
Procedure, shortened: as §3

common groundsel = assay: Test D common groundsel; assay type: in vivo, Senecio vulgaris; conditions: Preemergence, 0 to 100 scale
From the text: as §1, §2

Green foxtail [2] = assay: Test D green foxtail; assay type: in vivo; conditions: Preemergence, 0 to 100 scale
Procedure, shortened: as §3

corn = assay: Test C postemergence corn; assay type: in vivo, Zea mays; conditions: 0 to 100 scale, 0 no effect, 100 complete control
Procedure, shortened: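 Activity is expressed as percent-style visual control, 0 (no effect) to 100 (complete control), assessed approximately 14 to 21 days after application, relative to untreated plants. Application was postemergence, using a non-phytotoxic solvent formulation with surfactant.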

[3] = Rate 16 g/ha, 0 no injury, 100 complete control
[4] = Rate 32 g/ha, 0 no injury, 100 complete control
[5] = Rate 64 g/ha, 0 no injury, 100 complete control
[6] = Rate 125 g/ha, 0 no injury, 100 complete control
[7] = Rate 64 g/ha, Preemergence; 0 to 100 scale, 0 no injury, 100 complete control
[8] = Rate 125 g/ha, Preemergence; 0 to 100 scale, 0 no injury, 100 complete control

Cc1ccccc1-n1c(=O)on(C(=O)N(c2ccc(F)cc2)C(C)C)c1=O [Compound 4]
50: Plant response rating, Guineagrass (guineagrass; [5])
75: Plant response rating, Itchgrass (itchgrass; [5]) | Plant response rating, Dallisgrass (dallisgrass; [3])
70: Plant response rating, Goosegrass (goosegrass; [3])
100: Plant response rating, Alexandergrass (Alexandergrass; Rate 500 g/ha) | Plant response rating, Goosegrass (goosegrass; Rate 500 g/ha) | Plant response rating, Sandbur (sandbur; Rate 500 g/ha) | Plant response rating, Guineagrass (guineagrass; Rate 250 g/ha) | Plant response rating, Guineagrass (guineagrass; Rate 500 g/ha)
65: Surinam grass plant response rating (surinam grass; [5]) | Sandbur plant response rating (sandbur; [5])
95: Plant response rating, Goosegrass (goosegrass; [5])
85: Plant response rating, Surinam grass (surinam grass; Rate 250 g/ha) | Plant response rating, Goosegrass (goosegrass; [4]) | Plant response rating, Dallisgrass (dallisgrass; [4])
30: Plant response rating, Tall Mallow (tall mallow; Rate 250 g/ha) | Plant response rating, Tall Mallow (tall mallow; Rate 500 g/ha) | Plant response rating, Johnsongrass (Johnson grass; [5]) | Plant response rating, Johnsongrass (Johnson grass; Rate 250 g/ha) | Plant response rating, Johnsongrass (Johnson grass; Rate 500 g/ha) | Sandbur plant response rating (sandbur; [6]) | Plant response rating, Bermudagrass (bermuda-grass; [6])
20: Plant response rating, Alexandergrass (Alexandergrass; [3]) | Plant response rating, Alexandergrass (Alexandergrass; [4]) | Plant response rating, Guineagrass (guineagrass; [3]) | Plant response rating, Guineagrass (guineagrass; [4])
98: Plant response rating, Surinam grass (surinam grass; Rate 500 g/ha) | Plant response rating, Goosegrass (goosegrass; [6]) | Plant response rating, Goosegrass (goosegrass; Rate 250 g/ha) | Plant response rating, Dallisgrass (dallisgrass; [6]) | Plant response rating, Dallisgrass (dallisgrass; Rate 250 g/ha) | Plant response rating, Dallisgrass (dallisgrass; Rate 500 g/ha) | Plant response rating, Bermudagrass (bermuda-grass; Rate 250 g/ha) | Plant response rating, Bermudagrass (bermuda-grass; Rate 500 g/ha)
80: Plant response rating, Alexandergrass (Alexandergrass; [5]) | Plant response rating, Alexandergrass (Alexandergrass; [6]) | Plant response rating, Itchgrass (itchgrass; Rate 250 g/ha) | Plant response rating, Itchgrass (itchgrass; Rate 500 g/ha)
90: Surinam grass plant response rating (surinam grass; [6]) | Plant response rating, Alexandergrass (Alexandergrass; Rate 250 g/ha) | Plant response rating, Dallisgrass (dallisgrass; [5]) | Plant response rating, Sandbur (sandbur; Rate 250 g/ha) | Plant response rating, Guineagrass (guineagrass; [6])
0: Plant response rating, Surinam grass (surinam grass; [3]) | Plant response rating, Surinam grass (surinam grass; [4]) | Plant response rating, Tall Mallow (tall mallow; [3]) | Plant response rating, Tall Mallow (tall mallow; [4]) | Tall Mallow plant response rating (tall mallow; [5]) | Tall Mallow plant response rating (tall mallow; [6]) | Plant response rating, Itchgrass (itchgrass; [3]) | Plant response rating, Itchgrass (itchgrass; [4]) | Plant response rating, Itchgrass (itchgrass; [6]) | Plant response rating, Johnsongrass (Johnson grass; [3]) | Plant response rating, Johnsongrass (Johnson grass; [4]) | Plant response rating, Johnsongrass (Johnson grass; [6]) | Plant response rating, Sandbur (sandbur; [3]) | Plant response rating, Sandbur (sandbur; [4]) | Plant response rating, P. morninglory (pitted morningglory; [3]) | Plant response rating, P. morninglory (pitted morningglory; [4]) | Plant response rating, P. morninglory (pitted morningglory; [5]) | Plant response rating, P. morninglory (pitted morningglory; [6]) | Plant response rating, P. morninglory (pitted morningglory; Rate 250 g/ha) | Plant response rating, P. morninglory (pitted morningglory; Rate 500 g/ha) | Plant response rating, Bermudagrass (bermuda-grass; [3]) | Plant response rating, Bermudagrass (bermuda-grass; [4]) | Plant response rating, Bermudagrass (bermuda-grass; [5]) | Plant response rating, C. ragweed (common ragweed; [3]) | Plant response rating, C. ragweed (common ragweed; [4]) | Plant response rating, C. ragweed (common ragweed; [5]) | Plant response rating, C. ragweed (common ragweed; [6]) | Plant response rating, C. ragweed (common ragweed; Rate 250 g/ha) | Plant response rating, C. ragweed (common ragweed; Rate 500 g/ha)

Cc1cccc(C)c1-n1c(=O)on(C(=O)N(c2ccccc2)C(C)C)c1=O [Compound 46]
0: Plant response rating, Surinam grass (surinam grass; [3]) | Plant response rating, Surinam grass (surinam grass; [4]) | Surinam grass plant response rating (surinam grass; [5]) | Surinam grass plant response rating (surinam grass; [6]) | Plant response rating, Green foxtail (Green foxtail [1]; Preemergence; Rate 16 g/ha; 0 to 100 scale, 0 no injury, 100 complete control) | Plant response rating, Green foxtail (Green foxtail [1]; Preemergence; Rate 32 g/ha; 0 to 100 scale, 0 no injury, 100 complete control) | Plant response rating, Green foxtail (Green foxtail [1]; Rate 16 g/ha; Preemergence; 0 to 100 scale, 0 no injury, 100 complete control) | Plant response rating, Alexandergrass (Alexandergrass; [3]) | Plant response rating, Alexandergrass (Alexandergrass; [4]) | Plant response rating, Tall Mallow (tall mallow; [3]) | Plant response rating, Tall Mallow (tall mallow; [4]) | Tall Mallow plant response rating (tall mallow; [5]) | Plant response rating, Itchgrass (itchgrass; [3]) | Plant response rating, Itchgrass (itchgrass; [4]) | Plant response rating, Itchgrass (itchgrass; [5]) | Plant response rating, Itchgrass (itchgrass; [6]) | Plant response rating, Itchgrass (itchgrass; Rate 250 g/ha) | Plant response rating, Johnsongrass (Johnson grass; [3]) | Plant response rating, Johnsongrass (Johnson grass; [4]) | Plant response rating, Johnsongrass (Johnson grass; [5]) | Plant response rating, Goosegrass (goosegrass; [3]) | Plant response rating, Com. groundsel (common groundsel; [3]) | Plant response rating, Com. groundsel (common groundsel; [4]) | Plant response rating, Com. groundsel (common groundsel; [5]) | Plant response rating, Com. groundsel (common groundsel; [6]) | Plant response rating, Com. groundsel (common groundsel; Rate 250 g/ha) | Plant response rating, Com. groundsel (common groundsel; Rate 500 g/ha) | Plant response rating, Sandbur (sandbur; [3]) | Plant response rating, Sandbur (sandbur; [4]) | Sandbur plant response rating (sandbur; [5]) | Sandbur plant response rating (sandbur; [6]) | Plant response rating, Sandbur (sandbur; Rate 250 g/ha) | Plant response rating, Sandbur (sandbur; Rate 500 g/ha) | Plant response rating, P. morninglory (pitted morningglory; [3]) | Plant response rating, P. morninglory (pitted morningglory; [4]) | Plant response rating, P. morninglory (pitted morningglory; [5]) | Plant response rating, P. morninglory (pitted morningglory; [6]) | Plant response rating, P. morninglory (pitted morningglory; Rate 250 g/ha) | Plant response rating, P. morninglory (pitted morningglory; Rate 500 g/ha) | Plant response rating, C. ragweed (common ragweed; [3]) | Plant response rating, C. ragweed (common ragweed; [4]) | Plant response rating, C. ragweed (common ragweed; [5]) | Plant response rating, C. ragweed (common ragweed; [6]) | Plant response rating, C. ragweed (common ragweed; Rate 250 g/ha) | Plant response rating, C. ragweed (common ragweed; Rate 500 g/ha) | Plant response rating, Guineagrass (guineagrass; [3]) | Plant response rating, Guineagrass (guineagrass; [4])
100: Plant response rating, Green foxtail (Green foxtail [1]; Rate 250 g/ha; Preemergence; 0 to 100 scale) | Plant response rating, Green foxtail (Green foxtail [1]; Rate 500 g/ha, Preemergence; 0 to 100 scale) | Plant response rating, Goosegrass (goosegrass; Rate 500 g/ha) | Plant response rating, Green foxtail (Green foxtail [2]; Rate 250 g/ha) | Plant response rating, Green foxtail (Green foxtail [2]; Rate 500 g/ha) | Plant response rating, Dallisgrass (dallisgrass; [6]) | Plant response rating, Dallisgrass (dallisgrass; Rate 250 g/ha) | Plant response rating, Dallisgrass (dallisgrass; Rate 500 g/ha) | Plant response rating, Bermudagrass (bermuda-grass; [6]) | Plant response rating, Bermudagrass (bermuda-grass; Rate 250 g/ha) | Plant response rating, Bermudagrass (bermuda-grass; Rate 500 g/ha)
65: Plant response rating, Alexandergrass (Alexandergrass; [6]) | Plant response rating, Bermudagrass (bermuda-grass; [3]) | Plant response rating, Guineagrass (guineagrass; Rate 250 g/ha)
75: Plant response rating, Green foxtail (Green foxtail [1]; Rate 32 g/ha; Preemergence; 0 to 100 scale, 0 no injury, 100 complete control) | Plant response rating, Alexandergrass (Alexandergrass; Rate 250 g/ha) | Plant response rating, Goosegrass (goosegrass; [5])
20: Plant response rating, Goosegrass (goosegrass; [4]) | Plant response rating, Dallisgrass (dallisgrass; [3])
80: Plant response rating, Alexandergrass (Alexandergrass; Rate 500 g/ha)
10: Plant response rating, Surinam grass (surinam grass; Rate 250 g/ha) | Tall Mallow plant response rating (tall mallow; [6]) | Plant response rating, Tall Mallow (tall mallow; Rate 250 g/ha) | Plant response rating, Tall Mallow (tall mallow; Rate 500 g/ha) | Plant response rating, Itchgrass (itchgrass; Rate 500 g/ha)
85: Plant response rating, Goosegrass (goosegrass; [6]) | Plant response rating, Bermudagrass (bermuda-grass; [4]) | Plant response rating, Guineagrass (guineagrass; Rate 500 g/ha)
98: Plant response rating, Goosegrass (goosegrass; Rate 250 g/ha) | Plant response rating, Bermudagrass (bermuda-grass; [5])
40: Green foxtail plant response rating (Green foxtail [1]; [8]) | Plant response rating, Green foxtail (Green foxtail [1]; [8]) | Plant response rating, Alexandergrass (Alexandergrass; [5]) | Plant response rating, Johnsongrass (Johnson grass; [6]) | Plant response rating, Johnsongrass (Johnson grass; Rate 250 g/ha) | Plant response rating, Dallisgrass (dallisgrass; [4]) | Plant response rating, Dallisgrass (dallisgrass; [5])
30: Plant response rating, Surinam grass (surinam grass; Rate 500 g/ha) | Green foxtail plant response rating (Green foxtail [1]; [7]) | Plant response rating, Green foxtail (Green foxtail [1]; [7]) | Plant response rating, Guineagrass (guineagrass; [5]) | Plant response rating, Guineagrass (guineagrass; [6])
60: Plant response rating, Johnsongrass (Johnson grass; Rate 500 g/ha)

CC(C)N(C(=O)n1oc(=O)n(Cc2cccs2)c1=O)c1ccc(F)cc1 [Compound 80]
0: Plant response rating, Corn (corn; Rate 140 g/ha) | Plant response rating, Corn (corn; Rate 280 g/ha) | Plant response rating, Corn (corn; Rate 560 g/ha) | Plant response rating, Corn (corn; Rate 1120 g/ha)
